For one molecule, IC50 results are on record in US5624931A, “Pyrazole derivatives” (Fujisawa Pharmaceutical Co., Ltd., priority 1991, dated 1997).

Assay [1] deals with Interleukin-1 (IL-1) production, human peripheral blood monocyte. The assay is described as follows: Inhibitory activity on the production of Interleukin-1 (IL-1) in LPS-stimulated purified human peripheral blood monocytes (IL-1 ELISA). Format: cell-based. Conditions: 48 h, bacterial lipopolysaccharide 1 μg/10^4 cells, 2 days at 37° C., IL-1β ELISA, read-out: IC50 (inhibition of IL-1 production). The method, then: (a) Inhibitory activity on the production of Interleukin-1 (IL-1)
Purified human peripheral blood monocyte were stimulated with bacterial lipopolysaccharide (1 μg/10^4 cells) in the absence or presence of appropriately diluted test compound for 2 days at 37° C. in a humidified 5% CO2 atmosphere. Culture supernatants were tested for IL-1 ELISA assay.
Test compound was dissolved in absolute DMSO (dimethyl sulfoxide) to achieve 10 mM stock solutions and was subsequently diluted in serum free RPMI1640.
IL-1 levels were quantified by a commercial ELISA kit (Ohtsuka assay, Japan) using a sandwich technique. The sensitivity levels for the detection of IL-1β were 20 pg/ml.
(§1) The inhibitory concentration that caused a 50% inhibition (IC50) was calculated by regression analysis of the dose-response data.

For assay [2], the system named is tumor necrosis factor (TNF) production, human peripheral blood monocyte. Description: Inhibitory activity on the production of tumor necrosis factor (TNF) in LPS-stimulated purified human peripheral blood monocytes (TNF ELISA). Format: cell-based. The following applies: 48 h, bacterial lipopolysaccharide 1 μg/10^4 cells, 2 days at 37° C., read-out: IC50 (inhibition of TNF production). The method, then: (b) Inhibitory activity on the production of tumor necrosis factor (TNF)
Purified human peripheral blood monocyte were stimulated with bacterial lipopolysaccharide (1 μg/10^4 cells) in the absence or presence of appropriately diluted test compound for 2 days at 37° C. in a humidified 5% CO2 atmosphere. Culture supernatants were tested for TNF ELISA assay.
TNF levels were quantified by a commercial ELISA kit (Endogen, Inc. USA) using a sandwich technique. The sensitivity levels for the detection of TNF were 12 pg/ml.
as §1
A general note: In an ELISA, binding on a coated surface is turned into a signal by an enzyme label.

Each structure is given as a SMILES string.

Take `Fc1ccc(-c2nn3c(c2-c2ccncc2)NCCC3)cc1` [Example 2-(1), 2-(4-fluorophenyl)-3-(pyridin-4-yl)-4,5,6,7-tetrahydropyrazolo[1,5-a]pyrimidine]: the IC50 (in general, the point on the concentration scale where inhibition reaches its midpoint) in assay [1] came to 0.038 µM; in assay [2] it was 0.116 µM.
